The subject of the first series is HCV replicon RNA (Renilla luciferase HCV replicon cells 2209-23). The series can be described thus: Renilla luciferase assay (HCV replicon). It counts as cell-based, Hepatitis C virus. Conditions: Huh-7, 72 h; 2209-23 replicon cells (human hepatoma Huh7), three days incubation, 50% reduction of replicon level.
On to `[N-]=[N+]=N[C@]1(COC(=O)c2ccccc2)O[C@@H](n2ccc(N)nc2=O)[C@H](OC(=O)c2ccccc2)[C@@H]1OC(=O)c1ccccc1` [Compound 25, Benzoic acid (2R,3S,4R,5R)-3,4-dibenzoyloxy-5-(4-amino-2-oxo-2H-pyrimidin-1-yl)-2-azido-tetrahydro-furan-2-ylmethyl ester], for which the IC50 was determined as 2470 nM.

For the compound `CC(C)C(N)C(=O)OC[C@@]1(N=[N+]=[N-])O[C@@H](n2ccc(N)nc2=O)[C@H](O)[C@@H]1O` (stereo partly drawn) [Compound 18, 1-[(2R,3S,4R,5R)-5-(4-Amino-2-oxo-2H-pyrimidin-1-yl)-2-azido-3,4-dihydroxy-tetrahydro-furan-2-ylmethoxycarbonyl]-2-methyl-propyl-ammonium; chloride], inhibition was half-maximal at 2400 nM (IC50). This IC50 and that of the compound before are within 1.5-fold of each other.

`CC(C)(C)C(=O)Nc1ccn([C@@H]2O[C@@](COC(=O)C(C)(C)C)(N=[N+]=[N-])[C@@H](OC(=O)C(C)(C)C)[C@H]2OC(=O)C(C)(C)C)c(=O)n1` [Compound 5, 2,2-Dimethyl-propionic acid (2R,3S,4R,5R)-2-azido-5-[4-(2,2-dimethyl-propionylamino)-2-oxo-2H-pyrimidin-1-yl]-3,4-bis-(2,2-dimethyl-propionyloxy)-tetrahydro-furan-2-ylmethyl ester] came in with an IC50 of 5330 nM.

Test system in a further series: not given
Test: not given
Details: not given
As for `CCC(=O)OC[C@@]1(N=[N+]=[N-])O[C@H](n2ccc(N)nc2=O)[C@H](OC(=O)CC)[C@@H]1OC(=O)CC.Cl`, the melting point fell in the range of 72 to 75.2 °C.

Take `CCCCCCCCCC(=O)OC[C@@]1(N=[N+]=[N-])O[C@H](n2ccc(N)nc2=O)[C@H](O)[C@@H]1O.Cl`: the melting point lay within 180.6 to 181.2 °C.

As to `CCCCCCCCCCCC(=O)OC[C@@]1(N=[N+]=[N-])O[C@H](n2ccc(N)nc2=O)[C@H](O)[C@@H]1O.Cl`, the melting point is 154 to 155 °C.

In turn, `CCC(=O)OC[C@@]1(N=[N+]=[N-])O[C@@H](n2ccc(N)nc2=O)[C@H](OC(=O)CC)[C@@H]1OC(=O)CC` had a melting point of 75.9 to 79.9 °C.

`Cl.[N-]=[N+]=N[C@]1(COC(=O)c2ccccc2)O[C@H](n2ccc(N)nc2=O)[C@H](OC(=O)c2ccccc2)[C@@H]1OC(=O)c1ccccc1` gave a melting point of 208.9 to 210.3 °C.

The compound `CCCC(=O)OC[C@@]1(N=[N+]=[N-])O[C@H](n2ccc(N)nc2=O)[C@H](OC(=O)CCC)[C@@H]1OC(=O)CCC.Cl` came in with a melting point of 167.5 to 170.6 °C.

As to `[N-]=[N+]=N[C@]1(CO)O[C@@H](n2ccc(NC(=O)c3ccccc3)nc2=O)[C@H](O)[C@@H]1O`, the melting point was in the range of 108.1 to 118.2 °C.

Regarding `CCCCC(=O)O[C@H]1[C@@H](n2ccc(N)nc2=O)O[C@@](CO)(N=[N+]=[N-])[C@H]1OC(=O)CCCC.CS(=O)(=O)O`, the melting point was in the range of 115.3 to 120.1 °C.

On to `CC(=O)Nc1ccn([C@@H]2O[C@@](COC(C)=O)(N=[N+]=[N-])[C@@H](OC(C)=O)[C@H]2OC(C)=O)c(=O)n1`, for which the melting point lay within 77 to 80.1 °C.

For `CCCC(=O)O[C@H]1[C@@H](n2ccc(N)nc2=O)O[C@@](CO)(N=[N+]=[N-])[C@H]1OC(=O)CCC.Cl`, the melting point is 154.6 to 155.6 °C.

`CCCCCC(=O)O[C@H]1[C@@H](n2ccc(N)nc2=O)O[C@@](CO)(N=[N+]=[N-])[C@H]1OC(=O)CCCCC.CS(=O)(=O)O` yielded a melting point of 127.3 to 128.6 °C.

`CC(C)(C)OC(=O)Nc1ccn([C@@H]2O[C@@](CO)(N=[N+]=[N-])[C@@H](O)[C@H]2O)c(=O)n1` returned a melting point of 80 to 83.5 °C.

For `CC(=O)Nc1ccn([C@@H]2O[C@@](CO)(N=[N+]=[N-])[C@@H](O)[C@H]2O)c(=O)n1`, the melting point fell in the range of 94 to 96.8 °C.

In the case of `CCC(=O)O[C@H]1[C@@H](n2ccc(N)nc2=O)O[C@@](CO)(N=[N+]=[N-])[C@H]1OC(=O)CC.Cl`, the melting point lay in the range of 194.6 to 198.2 °C.

Compound `CCCCC(=O)OC[C@@]1(N=[N+]=[N-])O[C@H](n2ccc(N)nc2=O)[C@H](O)[C@@H]1O.Cl` yielded a melting point of 62.1 to 87.7 °C.

As for `Cl.[N-]=[N+]=N[C@]1(COC(=O)c2ccccc2)O[C@H](n2ccc(N)nc2=O)[C@H](O)[C@@H]1O`, the melting point was 163 to 166.5 °C.

`CC(C)(C)C(=O)Nc1ccn([C@@H]2O[C@@](CO)(N=[N+]=[N-])[C@@H](O)[C@H]2O)c(=O)n1` returned a melting point of 108 to 114 °C.

`CCCCCCCOC(=O)OC[C@@]1(N=[N+]=[N-])O[C@H](n2ccc(N)nc2=O)[C@H](O)[C@@H]1O.O=C(O)C(F)(F)F`: the melting point lay in the range of 90.9 to 94.6 °C.

As to `CCCCCCCCCOC(=O)OC[C@@]1(N=[N+]=[N-])O[C@H](n2ccc(N)nc2=O)[C@H](O)[C@@H]1O.Cl`, the melting point was in the range of 174.7 to 176.1 °C.

`CC(C)C(=O)O[C@H]1[C@@H](n2ccc(N)nc2=O)O[C@@](CO)(N=[N+]=[N-])[C@H]1OC(=O)C(C)C.Cl`: the melting point was 191.1 to 191.9 °C.

`COC(=O)Nc1ccn([C@H]2O[C@@](CO)(N=[N+]=[N-])[C@@H](O)[C@H]2O)c(=O)n1` registered a melting point of 141.1 to 141.8 °C.

The compound `Cl.[N-]=[N+]=N[C@]1(CO)O[C@H](n2ccc(N)nc2=O)[C@H](OC(=O)c2ccccc2)[C@@H]1OC(=O)c1ccccc1` registered a melting point of 166.2 to 168.1 °C.

The compound `CC(=O)OC[C@@]1(N=[N+]=[N-])O[C@H](n2ccc(N)nc2=O)[C@H](OC(C)=O)[C@@H]1OC(C)=O.Cl` displayed a melting point of 88 to 90.9 °C.

Take `CCCCC(=O)OC[C@@]1(N=[N+]=[N-])O[C@H](n2ccc(N)nc2=O)[C@H](OC(=O)CCCC)[C@@H]1OC(=O)CCCC.Cl` [Compound 46, (S)-1-((3R,4S,5R)-5-Azido-3,4-bis-pentanoyloxy-5-pentanoyloxymethyl-tetrahydro-furan-2-yl)-2-oxo-1,2-dihydro-pyrimidin-4-yl-ammonium; chloride]: the melting point was 72.9 to 74.7 °C.

With `CC(C)(C)C(=O)Nc1ccn([C@@H]2O[C@@](COC(=O)C(C)(C)C)(N=[N+]=[N-])[C@@H](OC(=O)C(C)(C)C)[C@H]2OC(=O)C(C)(C)C)c(=O)n1` [Compound 5, 2,2-Dimethyl-propionic acid (2R,3S,4R,5R)-2-azido-5-[4-(2,2-dimethyl-propionylamino)-2-oxo-2H-pyrimidin-1-yl]-3,4-bis-(2,2-dimethyl-propionyloxy)-tetrahydro-furan-2-ylmethyl ester], the melting point fell in the range of 67.4 to 80 °C.

In turn, `CC(C)(C)C(=O)OC[C@]1(N=[N+]=[N-])O[C@@H](n2ccc(N)nc2=O)[C@@H](OC(=O)C(C)(C)C)[C@H]1OC(=O)C(C)(C)C.Cl` showed a melting point of 136.2 to 140 °C.

In turn, `CCCCCCCCOC(=O)OC[C@@]1(N=[N+]=[N-])O[C@H](n2ccc(N)nc2=O)[C@H](O)[C@@H]1O.O=C(O)C(F)(F)F` came in with a melting point of 70.5 to 81 °C.

In the case of `CCCCCCOC(=O)Nc1ccn([C@H]2O[C@@](CO)(N=[N+]=[N-])[C@@H](O)[C@H]2O)c(=O)n1`, the melting point lay in the range of 134.4 to 136 °C.

With `CCCCC(=O)O[C@H]1[C@@H](n2ccc(N)nc2=O)O[C@@](CO)(N=[N+]=[N-])[C@H]1OC(=O)CCCC.Cl`, the melting point was 124.3 to 128.4 °C.

As for `CCCCCCCCCCOC(=O)OC[C@@]1(N=[N+]=[N-])O[C@H](n2ccc(N)nc2=O)[C@H](O)[C@@H]1O.O=C(O)C(F)(F)F` [Compound 86, (S)-1-((3R,4S,5R)-5-Azido-5-decyloxycarbonyloxymethyl-3,4-dihydroxy-tetrahydro-furan-2-yl)-2-oxo-1,2-dihydro-pyrimidin-4-yl-ammonium; trifluoro-acetate], the melting point was in the range of 75 to 77.7 °C.

The compound `CCCCCCOC(=O)OC[C@@]1(N=[N+]=[N-])O[C@H](n2ccc(N)nc2=O)[C@H](O)[C@@H]1O.O=C(O)C(F)(F)F` displayed a melting point of 71 to 103.9 °C.

For `CCCCOC(=O)Nc1ccn([C@@H]2O[C@@](CO)(N=[N+]=[N-])[C@@H](O)[C@H]2O)c(=O)n1`, the melting point lay within 86.5 to 94 °C.

Turning to `CCCCCCCCNC(=O)OC[C@@]1(N=[N+]=[N-])O[C@H](n2ccc(N)nc2=O)[C@H](O)[C@@H]1O.Cl`, the melting point is 164.9 to 168.5 °C.

For `CCCCCCCCCCCCC(=O)OC[C@]1(N=[N+]=[N-])OC(n2ccc(N)nc2=O)[C@H](O)[C@@H]1O.Cl` (some centres unmarked), the melting point was in the range of 178.6 to 179.4 °C.

Compound `CCCC(=O)O[C@H]1[C@@H](n2ccc(N)nc2=O)O[C@@](CO)(N=[N+]=[N-])[C@H]1OC(=O)CCC.O=C(O)C(F)(F)F` yielded a melting point of 91 to 94.9 °C.

As for `Cc1ccc(C(=O)OC[C@@]2(N=[N+]=[N-])O[C@H](n3ccc(N)nc3=O)[C@H](O)[C@@H]2O)cc1.Cl`, the melting point is 187 to 189 °C.

On to `CC(C)CC(=O)OC[C@@]1(N=[N+]=[N-])O[C@H](n2ccc(N)nc2=O)[C@H](OC(=O)CC(C)C)[C@@H]1OC(=O)CC(C)C.Cl`, for which the melting point lay in the range of 142 to 142.8 °C.

The compound `CCC(=O)OC[C@@]1(N=[N+]=[N-])O[C@H](n2ccc(N)nc2=O)[C@H](OC(=O)CC)[C@@H]1OC(=O)CC.CS(=O)(=O)O` displayed a melting point of 149 to 153 °C.
